The source of these data is US4180582A, “6-n-Propyl-8-methoxy-methyl or methylmercaptomethylergolines and related compounds as prolactin inhibitors and to treat Parkinson's syndrome” (priority 1979, dated 1979).

Structures can show the parent of a compound that is named as a salt.

The subject of one data set is Parkinsonism. The conditions noted are these: in words; cited from earlier work.
Data set [1] concerns prolactin. The conditions noted are these: in words; cited from earlier work.
The test system of data set [2] is dopamine receptors. The conditions noted are these: in words; cited from earlier work.
In data set [3] the test system is 6-hydroxydopamine-lesioned rats. The data set is described as follows: turning behavior test in 6-hydroxydopamine-lesioned rats. The conditions noted are these: for Average Number of Turns/rat: first 15 minutes after end of latency period. The class given is in vivo, rat. As for the experimental part: In this test, nigro-neostriatal-lesioned rats are employed, which are prepared by the procedure of Ungerstedt and Arbuthnott, Brain Res, 24, 485 (1970). A compound having dopamine agonist activity causes the rats to turn in circles contralateral to the side of the lesion. After a latency period, which varies from compound to compound, the number of turns is counted over a 15-minute period.
The compounds were dissolved in water and the aqueous solution injected into the rat by the intraperitoneal route.

The test system of data set [4] is prolactin. The data set is described as follows: inhibition of prolactin secretion in reserpine-treated male rats. The conditions noted are these: for Percent Inhibition of Serum Prolactin: vs. control of same experiment. It is filed as in vivo, rat (Sprague-Dawley). The arrangement: Serum Prolactin Level: unit not given here. As for the experimental part: Adult male rates of the Sprague-Dawley strain weighing about 200 g. were housed in an air-conditioned room with controlled lighting (lights on 6 a.m.-8 p.m.) and fed lab chow and water ad libitum. Each rat received an intraperitoneal injection of 2.0 mg. of reserpine in aqueous suspension 18 hours before administration of the ergoline derivative. The purpose of the reserpine was to keep prolactin levels uniformly elevated. The compounds under test were dissolved in 10 percent ethanol at a concentration of 10 mcg.ml. and were injected intraperitoneally at a standard dose of 50 mcg/kg. Each compound was administered to a group of 10 rats, and a control group of 10 intact males received an equivalent amount of 10 percent ethanol. One hour after treatment all rats were killed by decapitation, and 150 μl aliquots of serum were assayed for prolactin. The results were evaluated statistically using Student's "t" test to calculate the level of significance, "p", of the changes in prolactin level.
The difference between the prolactin level of the treated rats and prolactin level of the control rats, divided by the prolactin level of the control rats gives the percent inhibition of prolactin secretion attributable to the compounds of this invention. In the table, column 1 gives the name of the compound; column 2, the prolactin level for each group of rats; column 3, the percent prolactin inhibition; and column 4, the level of significance. The data were collected from three separate experiments, each with its own control, and Table 2 sets forth the results obtained by experiment.

For data set [5] the following is noted: in words; cited from earlier work.
The next data set relates to serotonin. The experiment in a line: serotonin agonism. As to conditions: in words.
The test system of data set [6] is dopamine receptors. The experiment in a line: inhibition of high affinity binding of tritiated dopamine to dopamine receptors in membranes from striatal synaptosomes. The arrangement: species or system bovine. As to conditions: in words.
The mark [7] stands for this setting: 50 mcg/kg i.p., one hour after treatment.

Turning to `CN1C[C@H](CC#N)C[C@@H]2c3cccc4[nH]c(Cl)c(c34)C[C@H]21` [legotrile], the “usefulness in the treatment of Parkinsonism” value in the data set with Parkinsonism is “useful in the treatment of Parkinsonism”.

For `CC(C)C1C(=O)N2CCCC2C2(O)OC(NC(=O)C3CC4c5cccc6[nH]cc(c56)CC4N(C)C3)(C(C)C)C(=O)N12` (stereo not shown) [dihydroergocornine], in the data set on prolactin [1], the “activity as prolactin inhibitors” value is “activity as prolactin inhibitors”.

`CC(C)C[C@H]1C(=O)N2CCC[C@H]2[C@]2(O)O[C@](NC(=O)[C@@H]3C=C4c5cccc6[nH]c(Br)c(c56)C[C@H]4N(C)C3)(C(C)C)C(=O)N12` (stereo in doubt) [2-bromo-α-ergokryptine]: the dopamine receptor stimulation entry with dopamine receptors [2] is “stimulate dopamine receptors”. In the data set on Parkinsonism, the “usefulness in the treatment of Parkinsonism” value was “useful in the treatment of Parkinsonism”. In the data set with prolactin [1], the “activity as prolactin inhibitors” value is “activity as prolactin inhibitors”.

For `CCCN1C[C@H](CSC)C[C@@H]2c3cccc4[nH]cc(c34)C[C@H]21` [D-6-n-propyl-8β-methylmercaptomethylergoline methanesulfonate], the “Duration of Effect” value in data set [3] (IP dose 1 mg/kg) is at least 24 h. Moreover, in data set [3] (vs. corresponding D-6-methyl derivative, dose response curves), the “relative potency in the turning behavior test” value was “about 30 times”. Moreover, the “relative potency as a prolactin inhibitor” value with prolactin [4] (vs. corresponding D-6-methyl compound, dose response curves) is reported as “about 100 times”.

As to `CCN1C[C@H](CSC)C[C@@H]2c3cccc4[nH]cc(c34)C[C@H]21` [D-6-ethyl-8β-methylmercaptomethylergoline mesylate], in data set [3] (IP dose 1 mg/kg), the “% of Rats Exhibiting Turning Behavior” value was determined as 100%, the “Duration of Effect” value is at least 2 h and the “Latency of Effect” value stood at 9 min. Also, the “Percent Inhibition of Serum Prolactin” value with prolactin [4] (setting [7]) amounted to 91%.

On to `CCCN1C[C@H](CSC)C=C2c3cccc4[nH]cc(c34)C[C@H]21` [D-6-n-propyl-8β-methylmercaptomethyl-9-ergolene], for which, in data set [3] (IP dose 1 mg/kg), the “% of Rats Exhibiting Turning Behavior” value is recorded as 100%, the “Duration of Effect” value is at least 2 h, the “Latency of Effect” value is 4 min and the “Average Number of Turns/rat” value amounted to 200 Turns/rat. Besides, the “Percent Inhibition of Serum Prolactin” value in the data set on prolactin [4] (setting [7]) is reported as 81%.

Turning to `N[C@@H](Cc1ccc(O)c(O)c1)C(=O)O` [Example 1-dopa, 1-dihydroxyphenylalanine], the metabolism result in data set [5] was “rapidly metabolized”.

Regarding `CN1CC(CC#N)C[C@@H]2c3cccc4[nH]cc(c34)C[C@H]21` (stereo partly drawn) [D-6-methyl-8-cyanomethylergoline], the “activity as prolactin inhibitors” value with prolactin [1] was “activity as prolactin inhibitors”.

Regarding `CCCN1C[C@H](C[S+](C)[O-])C[C@@H]2c3cccc4[nH]cc(c34)C[C@H]21` (stereo partly drawn) [D-6-n-propyl-8β-methylsulfinylmethylergoline mesylate], in data set [3] (IP dose 1 mg/kg), the “% of Rats Exhibiting Turning Behavior” value amounted to 100%, the “Duration of Effect” value was determined as 1 h, the “Latency of Effect” value came out at 7 min and the “Average Number of Turns/rat” value amounted to 65 Turns/rat. Besides, the “Serum Prolactin Level” value with prolactin [4] (50 mcg/kg i.p., one hour after treatment, reserpine-treated male rats) came out at 3.3. The “Percent Inhibition of Serum Prolactin” value in the data set on prolactin [4] (setting [7]) turned out to be 92%.

Consider `CCCN1C[C@H](CSC)C[C@@H]2c3cccc4[nH]cc(c34)C[C@H]21` [D-6-n-Propyl-8β-methylmercaptomethylergoline], for which the “serotonin agonist / antagonist activity” value in the data set on serotonin is “serotonin agonists rather than serotonin antagonists”. Also, the “inhibition of high affinity binding of tritiated dopamine” value in the data set on dopamine receptors [6] is “extremely potent inhibitors”.

With `CSC[C@@H]1C[C@@H]2c3cccc4[nH]cc(c34)C[C@H]2N(C)C1` [D-6-methyl-8β-methylmercaptomethylergoline mesylate, reference compound], in data set [3] (IP dose 1 mg/kg), the “% of Rats Exhibiting Turning Behavior” value came out at 50%, the “Duration of Effect in Hours” value is given as ~ 2 Hours and the “Average Number of Turns/rat” value was 51 Turns/rat. Also, in the data set on prolactin [4] (setting [7]), the “Percent Inhibition of Serum Prolactin” value is recorded as 58%.

As for `CCCN1C[C@H](CSC)C[C@@H]2c3cccc4[nH]c(Br)c(c34)C[C@H]21` [D-2-bromo-6-n-propyl-8β-methylmercaptomethylergoline mesylate], in data set [3] (IP dose 1 mg/kg), the “% of Rats Exhibiting Turning Behavior” value is 100%, the “Duration of Effect” value amounted to 1 h, the “Latency of Effect” value came to 5 min and the “Average Number of Turns/rat” value came out at 71 Turns/rat. Further, in the data set with prolactin [4] (setting [7]), the “Percent Inhibition of Serum Prolactin” value came out at 89%.

Take `CC(C)[C@H]1C(=O)N2CCC[C@H]2[C@]2(O)O[C@](NC(=O)[C@@H]3C=C4c5cccc6[nH]cc(c56)C[C@H]4N(C)C3)(C(C)C)C(=O)N12` [ergocornine]: the dopamine receptor stimulation result in the data set with dopamine receptors [2] is given as “stimulate dopamine receptors”. The “activity as prolactin inhibitors” value in the data set with prolactin [1] was “activity as prolactin inhibitors”.

On to `CCCN1CC(CSC)=C[C@@H]2c3cccc4[nH]cc(c34)C[C@H]21` [D-6-n-propyl-8-methylmercaptomethyl-8-ergolene maleate], for which, in data set [3] (IP dose 1 mg/kg), the “% of Rats Exhibiting Turning Behavior” value is recorded as 100%, the “Duration of Effect” value came out at 1 h and the “Latency of Effect” value turned out to be 4 min. Further, the “Percent Inhibition of Serum Prolactin” value with prolactin [4] (setting [7]) was found to be 91%.

Regarding `CCCN1C[C@H](COC)C[C@@H]2c3cccc4[nH]cc(c34)C[C@H]21` [D-6-n-propyl-8β-methoxymethylergoline methanesulfonate], in data set [3] (IP dose 1 mg/kg), the “% of Rats Exhibiting Turning Behavior” value was determined as 100%, the “Duration of Effect” value is at least 2 h and the “Latency of Effect” value stood at 6 min. Further, the “Percent Inhibition of Serum Prolactin” value with prolactin [4] (setting [7]) came out at 96%.
